Data from the kinase profiling compilation of Christmann-Franck et al. (2016).
Several values for one entry are separate records, joined by “and”; a condition that tells them apart may be missing. Equal values may be shown once.

Columns and labels:
Experiment in all cases: KINOMEscan competition binding
Conditions in all cases: compound 10.0 µM
ACVR2B (human) = ACVR2B (human) (UniProt Q13705)
BMPR1A (human) = BMPR1A (human) (UniProt P36894)
CDC2L2 (human) = CDC2L2 (human) (UniProt Q9UQ88)
CDC42BPB (human) = CDC42BPB (human) (UniProt Q9Y5S2)
CDK15 (human) = CDK15 (human) (UniProt Q96Q40)
CDK8 (human) = CDK8 (human) (UniProt P49336)
Sequence of CDK8 (human) (P49336 whole entry, looked up): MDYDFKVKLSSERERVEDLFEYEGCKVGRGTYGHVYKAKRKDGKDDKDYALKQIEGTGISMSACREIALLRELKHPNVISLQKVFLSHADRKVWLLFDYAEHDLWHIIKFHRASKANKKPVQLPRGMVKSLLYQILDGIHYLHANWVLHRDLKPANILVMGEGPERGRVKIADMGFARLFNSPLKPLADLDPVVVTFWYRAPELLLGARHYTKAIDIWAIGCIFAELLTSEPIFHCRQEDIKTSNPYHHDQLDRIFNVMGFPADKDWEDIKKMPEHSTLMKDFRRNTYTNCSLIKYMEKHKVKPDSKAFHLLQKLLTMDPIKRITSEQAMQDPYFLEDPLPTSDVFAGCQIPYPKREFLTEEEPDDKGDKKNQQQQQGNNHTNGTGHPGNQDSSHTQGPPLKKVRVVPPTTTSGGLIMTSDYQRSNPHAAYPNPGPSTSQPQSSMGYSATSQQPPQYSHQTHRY

CDKL3 (human) = CDKL3 (human) (UniProt Q8IVW4)
CSNK1D (human) = CSNK1D (human) (UniProt P48730)
CSNK1E (human) = CSNK1E (human) (UniProt P49674)
CSNK1G1 (human) = CSNK1G1 (human) (UniProt Q9HCP0)
CSNK1G3 (human) = CSNK1G3 (human) (UniProt Q9Y6M4)
Sequence of CSNK1G3 (human) (Q9Y6M4 whole entry, looked up): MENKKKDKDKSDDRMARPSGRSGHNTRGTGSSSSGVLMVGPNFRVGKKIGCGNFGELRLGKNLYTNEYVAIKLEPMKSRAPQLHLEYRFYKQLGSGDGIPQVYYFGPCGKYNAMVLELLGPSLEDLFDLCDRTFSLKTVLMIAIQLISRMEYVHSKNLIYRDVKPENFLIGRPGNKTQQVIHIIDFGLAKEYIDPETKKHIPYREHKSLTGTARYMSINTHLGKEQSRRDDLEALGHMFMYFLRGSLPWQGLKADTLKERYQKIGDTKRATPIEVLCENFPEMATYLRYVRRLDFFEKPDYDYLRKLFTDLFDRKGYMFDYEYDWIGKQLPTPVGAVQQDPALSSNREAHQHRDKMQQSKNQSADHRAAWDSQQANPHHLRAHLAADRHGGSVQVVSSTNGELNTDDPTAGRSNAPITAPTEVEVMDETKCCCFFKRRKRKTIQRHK

DAPK2 (human) = DAPK2 (human) (UniProt Q9UIK4)
DYRK2 (human) = DYRK2 (human) (UniProt Q92630)
EPHB6 (human) = EPHB6 (human) (UniProt O15197)
ERBB3 (human) = ERBB3 (human) (UniProt P21860)
FES (human) = FES (human) (UniProt P07332)
FGFR2 (human) = FGFR2 (human) (UniProt P21802)
[1] = test system: FGFR3 (human), P22607 [G697C]
FLT3 (human) = FLT3 (human) (UniProt P36888)
Sequence of FLT3 (human) (P36888 whole entry, looked up): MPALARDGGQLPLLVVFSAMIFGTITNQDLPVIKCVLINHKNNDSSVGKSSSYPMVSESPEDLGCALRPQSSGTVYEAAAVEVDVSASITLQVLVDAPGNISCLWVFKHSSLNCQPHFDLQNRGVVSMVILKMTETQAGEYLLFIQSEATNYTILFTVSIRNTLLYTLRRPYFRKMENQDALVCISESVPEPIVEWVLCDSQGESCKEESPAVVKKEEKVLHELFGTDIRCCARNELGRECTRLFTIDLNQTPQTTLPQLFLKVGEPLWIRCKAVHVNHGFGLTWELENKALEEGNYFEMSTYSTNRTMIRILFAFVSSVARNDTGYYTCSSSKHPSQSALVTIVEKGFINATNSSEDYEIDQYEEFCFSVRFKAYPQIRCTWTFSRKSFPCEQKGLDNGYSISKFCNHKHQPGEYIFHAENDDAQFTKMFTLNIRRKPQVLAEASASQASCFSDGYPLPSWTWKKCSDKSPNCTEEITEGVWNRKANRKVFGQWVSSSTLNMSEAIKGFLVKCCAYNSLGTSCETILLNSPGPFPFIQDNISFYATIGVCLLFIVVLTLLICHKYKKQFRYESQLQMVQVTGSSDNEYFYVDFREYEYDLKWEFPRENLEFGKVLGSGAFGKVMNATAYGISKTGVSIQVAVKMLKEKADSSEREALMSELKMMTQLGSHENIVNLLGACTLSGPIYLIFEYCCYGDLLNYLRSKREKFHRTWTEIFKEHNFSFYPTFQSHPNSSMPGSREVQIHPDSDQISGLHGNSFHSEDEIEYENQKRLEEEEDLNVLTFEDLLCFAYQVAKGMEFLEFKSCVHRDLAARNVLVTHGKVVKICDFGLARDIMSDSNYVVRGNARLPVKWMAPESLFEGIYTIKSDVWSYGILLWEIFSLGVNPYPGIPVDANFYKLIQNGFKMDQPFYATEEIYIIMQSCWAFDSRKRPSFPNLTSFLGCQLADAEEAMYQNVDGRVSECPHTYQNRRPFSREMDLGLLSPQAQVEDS

IRAK3 (human) = IRAK3 (human) (UniProt Q9Y616)
[2] = molecular target: JAK1 JH2 pseudokinase (human) (UniProt P23458)
MAP2K3 (human) = MAP2K3 (human) (UniProt P46734)
MAP3K2 (human) = MAP3K2 (human) (UniProt Q9Y2U5)
MELK (human) = MELK (human) (UniProt Q14680)
MKNK2 (human) = MKNK2 (human) (UniProt Q9HBH9)
MST4 (human) = MST4 (human) (UniProt Q9P289)
OXSR1 (human) = OXSR1 (human) (UniProt O95747)
PAK7 (human) = PAK7 (human) (UniProt Q9P286)
PDGFRB (human) = PDGFRB (human) (UniProt P09619)
PIK3CB (human) = PIK3CB (human) (UniProt P42338)
Sequence of PIK3CB (human) (P42338 whole entry, looked up): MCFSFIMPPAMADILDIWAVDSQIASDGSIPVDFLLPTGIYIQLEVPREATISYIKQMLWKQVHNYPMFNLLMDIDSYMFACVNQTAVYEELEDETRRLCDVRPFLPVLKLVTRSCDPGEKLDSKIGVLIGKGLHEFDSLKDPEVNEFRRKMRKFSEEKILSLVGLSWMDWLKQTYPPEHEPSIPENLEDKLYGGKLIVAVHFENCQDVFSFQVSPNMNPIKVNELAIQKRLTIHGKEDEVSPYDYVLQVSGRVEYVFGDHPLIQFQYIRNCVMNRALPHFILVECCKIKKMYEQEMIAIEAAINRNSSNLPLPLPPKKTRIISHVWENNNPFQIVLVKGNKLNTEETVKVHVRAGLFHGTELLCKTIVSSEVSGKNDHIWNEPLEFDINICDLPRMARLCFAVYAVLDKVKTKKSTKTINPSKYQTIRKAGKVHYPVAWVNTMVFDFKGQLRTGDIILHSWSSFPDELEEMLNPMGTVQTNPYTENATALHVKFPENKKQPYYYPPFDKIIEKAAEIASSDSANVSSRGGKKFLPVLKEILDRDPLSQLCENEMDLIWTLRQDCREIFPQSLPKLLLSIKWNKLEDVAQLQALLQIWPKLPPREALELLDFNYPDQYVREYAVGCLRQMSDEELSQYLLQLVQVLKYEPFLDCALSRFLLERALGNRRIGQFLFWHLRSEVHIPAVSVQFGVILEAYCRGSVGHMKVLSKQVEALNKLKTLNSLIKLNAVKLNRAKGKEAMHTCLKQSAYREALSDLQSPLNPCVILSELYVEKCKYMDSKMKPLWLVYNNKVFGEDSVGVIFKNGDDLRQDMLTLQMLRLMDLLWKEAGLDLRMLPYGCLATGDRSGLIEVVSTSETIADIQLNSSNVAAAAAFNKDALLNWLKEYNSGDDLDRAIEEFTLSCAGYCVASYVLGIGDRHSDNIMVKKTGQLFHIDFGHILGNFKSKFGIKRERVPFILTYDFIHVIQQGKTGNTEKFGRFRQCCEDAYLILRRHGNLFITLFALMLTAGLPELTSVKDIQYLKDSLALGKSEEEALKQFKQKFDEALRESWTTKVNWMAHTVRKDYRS

PIM1 (human) = PIM1 (human) (UniProt P11309)
Sequence of PIM1 (human) (P11309 whole entry, looked up): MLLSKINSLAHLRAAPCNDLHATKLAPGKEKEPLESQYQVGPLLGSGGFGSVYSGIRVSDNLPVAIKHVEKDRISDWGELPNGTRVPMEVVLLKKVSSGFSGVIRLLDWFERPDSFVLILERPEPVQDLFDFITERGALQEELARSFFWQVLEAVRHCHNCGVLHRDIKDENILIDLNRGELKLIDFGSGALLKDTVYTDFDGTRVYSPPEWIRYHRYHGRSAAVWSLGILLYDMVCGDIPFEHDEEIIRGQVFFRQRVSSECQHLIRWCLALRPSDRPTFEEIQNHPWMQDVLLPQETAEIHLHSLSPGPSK

PRKACB (human) = PRKACB (human) (UniProt P22694)
PRKCD (human) = PRKCD (human) (UniProt Q05655)
PTK6 (human) = PTK6 (human) (UniProt Q13882)
RIOK2 (human) = RIOK2 (human) (UniProt Q9BVS4)
RIPK4 (human) = RIPK4 (human) (UniProt P57078)
Sequence of RIPK4 (human) (P57078 whole entry, looked up): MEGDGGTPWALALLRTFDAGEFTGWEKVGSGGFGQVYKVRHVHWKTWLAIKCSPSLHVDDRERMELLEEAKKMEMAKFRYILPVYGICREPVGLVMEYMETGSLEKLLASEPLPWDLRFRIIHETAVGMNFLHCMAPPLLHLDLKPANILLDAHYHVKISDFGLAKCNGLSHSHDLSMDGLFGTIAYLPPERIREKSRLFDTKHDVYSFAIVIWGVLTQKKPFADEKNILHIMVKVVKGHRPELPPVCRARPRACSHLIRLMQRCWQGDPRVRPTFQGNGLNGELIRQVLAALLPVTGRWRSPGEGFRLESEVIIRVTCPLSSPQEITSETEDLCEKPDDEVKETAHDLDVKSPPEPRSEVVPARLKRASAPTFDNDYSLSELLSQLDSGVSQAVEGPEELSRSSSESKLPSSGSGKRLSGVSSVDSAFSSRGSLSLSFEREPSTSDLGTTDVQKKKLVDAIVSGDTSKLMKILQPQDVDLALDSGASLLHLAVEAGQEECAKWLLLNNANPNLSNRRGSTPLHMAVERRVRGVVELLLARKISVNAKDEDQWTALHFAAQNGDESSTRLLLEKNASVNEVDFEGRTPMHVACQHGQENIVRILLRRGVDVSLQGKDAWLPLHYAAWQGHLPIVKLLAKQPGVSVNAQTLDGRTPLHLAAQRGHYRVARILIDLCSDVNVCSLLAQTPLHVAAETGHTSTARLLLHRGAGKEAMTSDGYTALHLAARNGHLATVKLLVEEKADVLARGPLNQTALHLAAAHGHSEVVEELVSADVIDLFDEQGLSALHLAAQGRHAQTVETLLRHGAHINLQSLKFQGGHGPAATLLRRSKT

RPS6KA3 KD1 (human) = RPS6KA3 KD1 (human) (UniProt P51812)
Sequence of RPS6KA3 KD1 (human) (P51812 whole entry, looked up): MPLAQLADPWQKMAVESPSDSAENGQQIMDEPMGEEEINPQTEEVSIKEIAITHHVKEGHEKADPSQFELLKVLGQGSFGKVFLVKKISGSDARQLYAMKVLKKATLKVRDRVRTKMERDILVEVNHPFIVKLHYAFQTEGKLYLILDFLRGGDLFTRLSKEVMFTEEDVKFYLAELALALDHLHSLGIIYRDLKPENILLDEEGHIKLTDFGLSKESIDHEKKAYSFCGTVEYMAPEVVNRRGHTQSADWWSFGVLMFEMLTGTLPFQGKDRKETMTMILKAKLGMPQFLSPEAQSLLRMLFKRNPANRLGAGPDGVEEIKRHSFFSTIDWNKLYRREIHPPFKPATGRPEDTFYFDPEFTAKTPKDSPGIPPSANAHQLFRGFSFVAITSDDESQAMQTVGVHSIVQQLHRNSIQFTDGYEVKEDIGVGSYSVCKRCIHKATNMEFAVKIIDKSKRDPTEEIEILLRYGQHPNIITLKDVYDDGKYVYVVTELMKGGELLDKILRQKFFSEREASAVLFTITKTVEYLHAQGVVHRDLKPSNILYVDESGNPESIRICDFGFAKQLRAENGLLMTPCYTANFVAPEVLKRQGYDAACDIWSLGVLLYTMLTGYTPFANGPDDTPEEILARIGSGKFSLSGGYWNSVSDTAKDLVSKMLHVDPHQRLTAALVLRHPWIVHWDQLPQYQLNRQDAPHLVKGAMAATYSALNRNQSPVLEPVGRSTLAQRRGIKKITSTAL

SYK (human) = SYK (human) (UniProt P43405)
TNK1 (human) = TNK1 (human) (UniProt Q13470)
TTK (human) = TTK (human) (UniProt P33981)

| SMILES | kinase still bound, per cent of control (ACVR2B (human)) | kinase still bound, per cent of control (BMPR1A (human)) | kinase still bound, per cent of control (CDC2L2 (human)) | kinase still bound, per cent of control (CDC42BPB (human)) | kinase still bound, per cent of control (CDK15 (human)) | kinase still bound, per cent of control (CDK8 (human)) | kinase still bound, per cent of control (CDKL3 (human)) | kinase still bound, per cent of control (CSNK1D (human)) | kinase still bound, per cent of control (CSNK1E (human)) | kinase still bound, per cent of control (CSNK1G1 (human)) | kinase still bound, per cent of control (CSNK1G3 (human)) | kinase still bound, per cent of control (DAPK2 (human)) | kinase still bound, per cent of control (DYRK2 (human)) | kinase still bound, per cent of control (EPHB6 (human)) | kinase still bound, per cent of control (ERBB3 (human)) | kinase still bound, per cent of control (FES (human)) | kinase still bound, per cent of control (FGFR2 (human)) | kinase still bound, per cent of control [1] | kinase still bound, per cent of control (FLT3 (human)) | kinase still bound, per cent of control (IRAK3 (human)) | further results |
| --- | --- | --- | --- | --- | --- | --- | --- | --- | --- | --- | --- | --- | --- | --- | --- | --- | --- | --- | --- | --- | --- |
| CCOc1cc(N2CCC(O)CC2)ccc1Nc1ncc2c(n1)N(C)c1ccccc1C(=O)N2C | 100% | 100% | 100% | 100% | 100% | 100% | 100% | 100% | 100% | 100% | 100% | 100% | 100% | 100% | 100% | 100% | 100% | 100% | 100% | 100% | kinase still bound, per cent of control [2]: 100%; kinase still bound, per cent of control (MAP2K3 (human)): 100%; kinase still bound, per cent of control (MAP3K2 (human)): 100%; kinase still bound, per cent of control (MELK (human)): 100%; kinase still bound, per cent of control (MKNK2 (human)): 100%; kinase still bound, per cent of control (MST4 (human)): 100%; kinase still bound, per cent of control (OXSR1 (human)): 100%; kinase still bound, per cent of control (PAK7 (human)): 100%; kinase still bound, per cent of control (PDGFRB (human)): 100%; kinase still bound, per cent of control (PIK3CB (human)): 100%; kinase still bound, per cent of control (PIM1 (human)): 100%; kinase still bound, per cent of control (PRKACB (human)): 100%; kinase still bound, per cent of control (PRKCD (human)): 100%; kinase still bound, per cent of control (PTK6 (human)): 100%; kinase still bound, per cent of control (RIOK2 (human)): 100%; kinase still bound, per cent of control (RIPK4 (human)): 100%; kinase still bound, per cent of control (RPS6KA3 KD1 (human)): 100%; kinase still bound, per cent of control (SYK (human)): 100%; kinase still bound, per cent of control (TNK1 (human)): 7.8%; kinase still bound, per cent of control (TTK (human)): 19% |
| COc1cc2ncnc(Nc3cccc(Cl)c3)c2cc1OC | 54% | 55% | 77% | 98% | 75% | 100% | 76% | 54% | 32% | 100% | 100% | 60% | 27% | 16% | 18% | 96% | 99% | 100% | 42% and 58% | 30% | kinase still bound, per cent of control [2]: 38%; kinase still bound, per cent of control (MAP2K3 (human)): 57%; kinase still bound, per cent of control (MAP3K2 (human)): 30%; kinase still bound, per cent of control (MELK (human)): 74%; kinase still bound, per cent of control (MKNK2 (human)): 3.9%; kinase still bound, per cent of control (MST4 (human)): 84%; kinase still bound, per cent of control (OXSR1 (human)): 71%; kinase still bound, per cent of control (PAK7 (human)): 90%; kinase still bound, per cent of control (PDGFRB (human)): 30%; kinase still bound, per cent of control (PIK3CB (human)): 47%; kinase still bound, per cent of control (PIM1 (human)): 49%; kinase still bound, per cent of control (PRKACB (human)): 100%; kinase still bound, per cent of control (PRKCD (human)): 97%; kinase still bound, per cent of control (PTK6 (human)): 58%; kinase still bound, per cent of control (RIOK2 (human)): 43%; kinase still bound, per cent of control (RIPK4 (human)): 43%; kinase still bound, per cent of control (RPS6KA3 KD1 (human)): 67%; kinase still bound, per cent of control (SYK (human)): 54%; kinase still bound, per cent of control (TNK1 (human)): 26%; kinase still bound, per cent of control (TTK (human)): 61% |
